# Experimental data reported in the supplement of paper PMC4862054.
# Tests used:
# Conditions in all cases: incubation time: 72 h
# HDQ-P1 [1] = assay: normalised response (% of control), CellTiter-Glo; higher = more viable cells (100 = DMSO, 0 = benzethonium chloride kill control)
# Description: (§1)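 DSRT, 72 h incubation, CellTox Green / CellTiter-Glo readout. Signal is normalised to DMSO and benzethonium chloride controls. Value is the normalised response at the highest dose.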
# Hs578T [2] = assay: as above
# Description: as §1
# CAL-148 [3] = assay: as above
# Description: as §1
# CAL-51 [4] = assay: as above
# Description: as §1
# MDA-MB-231 [5] = assay: as above
# Description: as §1
# BT-474 [6] = assay: as above
# Description: as §1
# MDA-MB-468 [7] = assay: as above
# Description: as §1
# MFM-223 [8] = assay: as above
# Description: as §1
# HCC1143 [9] = assay: as above
# Description: as §1
# DU-4475 [10] = assay: as above
# Description: as §1
# CAL-120 [11] = assay: as above
# Description: as §1
# HCC1599 [12] = assay: as above
# Description: as §1
# MCF-10A [13] = assay: as above
# Description: as §1
# CAL-85-1 [14] = assay: as above
# Description: as §1
# MDA-MB-436 [15] = assay: as above
# Description: as §1
# HCC1937 [16] = assay: as above
# Description: as §1
# MDA-MB-453 [17] = assay: as above
# Description: as §1
# BT-549 [18] = assay: as above
# Description: as §1
# SK-BR-3 [19] = assay: as above
# Description: as §1
# HDQ-P1 [20] = assay: normalised response (% of control), CellTox Green; higher = less cell death (100 = DMSO, 0 = benzethonium chloride kill control)
# In short: (§2)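 The table gives the normalised signal for a single concentration in each entry. Breast cancer cell lines were seeded (20 µl suspension) into 384-well plates holding compound at 5 concentrations in 10-fold steps over a compound-specific 10,000-fold range and incubated 72 h, then read for CellTox Green fluorescence (485/520 nm) and CellTiter-Glo luminescence. Normalisation on each plate used 0.1 % DMSO (100) and a positive kill control (0).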
# CAL-148 [21] = assay: as above
# In short: as §2
# CAL-51 [22] = assay: as above
# In short: as §2
# MDA-MB-231 [23] = assay: as above
# In short: as §2
# BT-474 [24] = assay: as above
# In short: as §2
# MDA-MB-468 [25] = assay: as above
# In short: as §2
# MFM-223 [26] = assay: as above
# In short: as §2
# HCC1143 [27] = assay: as above
# In short: as §2
# DU-4475 [28] = assay: as above
# In short: as §2
# CAL-120 [29] = assay: as above
# In short: as §2
# HCC1599 [30] = assay: as above
# In short: as §2
# MCF-10A [31] = assay: as above
# In short: as §2
# CAL-85-1 [32] = assay: as above
# In short: as §2
# MDA-MB-436 [33] = assay: as above
# In short: as §2
# HCC1937 [34] = assay: as above
# In short: as §2
# MDA-MB-453 [35] = assay: as above
# In short: as §2
# BT-549 [36] = assay: as above
# In short: as §2
# HDQ-P1 [37] = assay: normalised response (% of control), CellTiter-Glo; higher = more viable cells (100 = DMSO, 0 = benzethonium chloride kill control); remark: listed apart in the source
# In short: as §2
# Hs578T [38] = assay: as above; remark: listed apart in the source
# In short: as §2
# CAL-148 [39] = assay: as above; remark: listed apart in the source
# In short: as §2
# CAL-51 [40] = assay: as above; remark: listed apart in the source
# In short: as §2
# MDA-MB-231 [41] = assay: as above; remark: listed apart in the source
# In short: as §2
# BT-474 [42] = assay: as above; remark: listed apart in the source
# In short: as §2
# MDA-MB-468 [43] = assay: as above; remark: listed apart in the source
# In short: as §2
# MFM-223 [44] = assay: as above; remark: listed apart in the source
# In short: as §2
# HCC1143 [45] = assay: as above; remark: listed apart in the source
# In short: as §2
# DU-4475 [46] = assay: as above; remark: listed apart in the source
# In short: as §2
# CAL-120 [47] = assay: as above; remark: listed apart in the source
# In short: as §2
# HCC1599 [48] = assay: as above; remark: listed apart in the source
# In short: as §2
# MCF-10A [49] = assay: as above; remark: listed apart in the source
# In short: as §2
# CAL-85-1 [50] = assay: as above; remark: listed apart in the source
# In short: as §2
# MDA-MB-436 [51] = assay: as above; remark: listed apart in the source
# In short: as §2
# HCC1937 [52] = assay: as above; remark: listed apart in the source
# In short: as §2
# MDA-MB-453 [53] = assay: as above; remark: listed apart in the source
# In short: as §2
# BT-549 [54] = assay: as above; remark: listed apart in the source
# In short: as §2
# SK-BR-3 [55] = assay: as above; remark: listed apart in the source
# In short: as §2
# Hs578T [56] = assay: normalised response (% of control), CellTox Green; higher = less cell death (100 = DMSO, 0 = benzethonium chloride kill control)
# In short: as §2
Compound,normalised response (HDQ-P1 [20]) [%],normalised response (CAL-148 [21]) [%],normalised response (CAL-51 [22]) [%],normalised response (MDA-MB-231 [23]) [%],normalised response (BT-474 [24]) [%],normalised response (MDA-MB-468 [25]) [%],normalised response (MFM-223 [26]) [%],normalised response (HCC1143 [27]) [%],normalised response (DU-4475 [28]) [%],normalised response (CAL-120 [29]) [%],normalised response (HCC1599 [30]) [%],normalised response (MCF-10A [31]) [%],normalised response (CAL-85-1 [32]) [%],normalised response (MDA-MB-436 [33]) [%],normalised response (HCC1937 [34]) [%],normalised response (MDA-MB-453 [35]) [%],normalised response (BT-549 [36]) [%],normalised response (HDQ-P1 [37]) [%],normalised response (Hs578T [38]) [%],normalised response (CAL-148 [39]) [%],also measured
CC(C)(C)Cn1c(N)nc2ccc(-c3[nH]c(C(C)(C)C)nc3-c3ccc(F)cc3)nc21 (10000 nM),100,98.9,104,47.1,89.8,107,86.6,87.1,95.7,93.6,85.6,89.3,41.5,71.1,92.4,93.9,90.9,,,,normalised response (HDQ-P1 [1]): 70.7%; normalised response (Hs578T [2]): 94.1%; normalised response (CAL-148 [3]): 94.7%; normalised response (CAL-51 [4]): 104%; normalised response (MDA-MB-231 [5]): 67.2%; normalised response (BT-474 [6]): 66.4%; normalised response (MDA-MB-468 [7]): 37%; normalised response (MFM-223 [8]): 63.7%; normalised response (HCC1143 [9]): 86.1%; normalised response (DU-4475 [10]): 99.4%; normalised response (CAL-120 [11]): 89.3%; normalised response (HCC1599 [12]): 78.1%; normalised response (MCF-10A [13]): 43.6%; normalised response (CAL-85-1 [14]): 64.9%; normalised response (MDA-MB-436 [15]): 82.1%; normalised response (HCC1937 [16]): 65.3%; normalised response (MDA-MB-453 [17]): 77.3%; normalised response (BT-549 [18]): 76.4%; normalised response (SK-BR-3 [19]): 62.7%
CCc1c(C(=O)C(N)=O)c2c(OCC(=O)O)cccc2n1Cc1ccccc1 [Varespladib] (100 nM),96,102,96.8,104,104,88.9,91.1,92.1,104,102,97,112,99.3,106,83.1,105,99.1,101,104,103,normalised response (CAL-51 [40]): 95.6%; normalised response (MDA-MB-231 [41]): 103%; normalised response (BT-474 [42]): 98%; normalised response (MDA-MB-468 [43]): 95.3%; normalised response (MFM-223 [44]): 102%; normalised response (HCC1143 [45]): 103%; normalised response (DU-4475 [46]): 98.8%; normalised response (CAL-120 [47]): 111%; normalised response (HCC1599 [48]): 95.9%; normalised response (MCF-10A [49]): 105%; normalised response (CAL-85-1 [50]): 98.5%; normalised response (MDA-MB-436 [51]): 98.5%; normalised response (HCC1937 [52]): 102%; normalised response (MDA-MB-453 [53]): 97%; normalised response (BT-549 [54]): 100%; normalised response (SK-BR-3 [55]): 101%; normalised response (Hs578T [56]): 99.9%
COc1cc2c(cc1-c1c(C)noc1C)ncc1[nH]c(=O)n([C@H](C)c3ccccn3)c12 [I-BET151] (100 nM),89.7,102,112,78.7,101,54,103,91.9,103,97.4,99.1,89.9,107,64.7,102,98.3,93.2,96,102,110,normalised response (CAL-51 [40]): 104%; normalised response (MDA-MB-231 [41]): 99.6%; normalised response (BT-474 [42]): 89.6%; normalised response (MDA-MB-468 [43]): 98.9%; normalised response (MFM-223 [44]): 103%; normalised response (HCC1143 [45]): 117%; normalised response (DU-4475 [46]): 94.8%; normalised response (CAL-120 [47]): 99.9%; normalised response (HCC1599 [48]): 100%; normalised response (MCF-10A [49]): 93.8%; normalised response (CAL-85-1 [50]): 104%; normalised response (MDA-MB-436 [51]): 96.4%; normalised response (HCC1937 [52]): 98.4%; normalised response (MDA-MB-453 [53]): 85.7%; normalised response (BT-549 [54]): 98.8%; normalised response (SK-BR-3 [55]): 105%; normalised response (Hs578T [56]): 108%
CO[C@H](C(=O)[C@@H](O)[C@@H](C)O)[C@@H]1Cc2cc3cc(O[C@H]4C[C@@H](O[C@@H]5C[C@@H](O)[C@H](O)[C@@H](C)O5)[C@H](O)[C@@H](C)O4)c(C)c(O)c3c(O)c2C(=O)[C@H]1O[C@H]1C[C@@H](O[C@@H]2C[C@@H](O)[C@@H](O[C@@H]3C[C@](C)(O)[C@H](O)[C@@H](C)O3)[C@@H](C)O2)[C@H](O)[C@@H](C)O1 [Plicamycin] (100 nM),94.3,107,85.5,109,99.4,131,100,101,102,102,106,93.4,99,96.8,119,105,98.7,99.5,104,112,normalised response (CAL-51 [40]): 66.4%; normalised response (MDA-MB-231 [41]): 104%; normalised response (BT-474 [42]): 100%; normalised response (MDA-MB-468 [43]): 105%; normalised response (MFM-223 [44]): 103%; normalised response (HCC1143 [45]): 104%; normalised response (DU-4475 [46]): 105%; normalised response (CAL-120 [47]): 103%; normalised response (HCC1599 [48]): 99.4%; normalised response (MCF-10A [49]): 108%; normalised response (CAL-85-1 [50]): 100%; normalised response (MDA-MB-436 [51]): 103%; normalised response (HCC1937 [52]): 98%; normalised response (MDA-MB-453 [53]): 114%; normalised response (BT-549 [54]): 103%; normalised response (SK-BR-3 [55]): 102%; normalised response (Hs578T [56]): 86%
